According to ChEMBL document CHEMBL1147462, “Exploring QSAR of melatonin receptor ligand benzofuran derivatives using E-state index” (Bioorg Med Chem Lett, 2004):

Experiments:
[1] = biological target: T1, Melatonin receptor type 1B (Homo sapiens) (UniProt P49286); assay: Binding affinity against melatonin receptor type 1B
T1 sequence (whole entry): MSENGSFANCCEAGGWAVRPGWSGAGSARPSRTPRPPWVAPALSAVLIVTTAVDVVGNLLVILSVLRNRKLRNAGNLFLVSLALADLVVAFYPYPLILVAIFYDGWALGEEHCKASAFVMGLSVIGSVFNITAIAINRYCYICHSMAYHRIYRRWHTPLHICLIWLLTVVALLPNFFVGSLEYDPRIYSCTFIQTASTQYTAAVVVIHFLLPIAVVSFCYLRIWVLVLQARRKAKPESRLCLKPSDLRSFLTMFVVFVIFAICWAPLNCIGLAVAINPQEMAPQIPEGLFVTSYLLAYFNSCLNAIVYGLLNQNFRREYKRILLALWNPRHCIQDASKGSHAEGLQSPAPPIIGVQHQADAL

[2] = biological target: Melatonin receptor type 1A (Homo sapiens) (UniProt P48039); assay: Binding affinity against Melatonin receptor type 1A
Sequence of Melatonin receptor type 1A (Homo sapiens) (P48039 whole entry): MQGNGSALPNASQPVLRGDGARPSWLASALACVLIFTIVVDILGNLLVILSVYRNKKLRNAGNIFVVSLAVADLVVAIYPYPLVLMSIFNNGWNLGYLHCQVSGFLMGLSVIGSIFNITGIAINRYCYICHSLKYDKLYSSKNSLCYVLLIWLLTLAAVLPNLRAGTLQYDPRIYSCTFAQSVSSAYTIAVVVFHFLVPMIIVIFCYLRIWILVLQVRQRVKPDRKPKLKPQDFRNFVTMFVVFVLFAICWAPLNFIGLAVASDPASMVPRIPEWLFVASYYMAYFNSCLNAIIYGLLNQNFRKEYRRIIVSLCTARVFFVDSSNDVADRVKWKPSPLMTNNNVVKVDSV

[3] = biological target: T2, Melatonin receptor (Homo sapiens) (UniProt P48039+P49286); assay: Selectivity (pC2-PC1) was determined; assay type: protein assay
T2 sequence (P48039 whole entry, looked up, one chain of several): as the sequence (P48039 whole entry) above

[4] = biological target: T2, Melatonin receptor (Homo sapiens); assay: Binding affinity against melatonin (MT1) receptor (pC1); assay type: protein assay

| Structure (SMILES) | pC1 [1] | pC1 [2] | Selectivity [3] | pC1 [4] |
| --- | --- | --- | --- | --- |
| COc1ccc2oc(-c3ccccc3)c(CCNC(C)=O)c2c1 | 4.7 | 5 | -0.301 | – |
| CNC(=O)NCCc1c(-c2ccccc2)oc2ccc(OC)cc12 | 4.4 | – | 0 | 4.4 |
| C=CC(=O)NCCc1c(-c2ccccc2)oc2ccc(OC)cc12 | 5 | 4.7 | 0.301 | – |
| COc1ccc(Cc2oc3ccc(OC)cc3c2CCNC(C)=O)cc1 | 3.3 | 1.62 | 1.68 | – |
| CNC(=O)NCCc1c(Cc2ccccc2)oc2ccc(OC)cc12 | 3.46 | 2.27 | 1.19 | – |
| CCc1ccc2oc(Cc3cccc(OC)c3)c(CCNC(C)=O)c2c1 | 1.77 | 0.541 | 1.23 | – |
| COc1ccc2oc(Cc3ccccc3OC)c(CCNC(C)=O)c2c1 | 3.47 | 1.84 | 2.1 | – |
| COc1ccc2oc(-c3ccccc3)c(CCNC(=O)Cc3ccco3)c2c1 | 0.442 | 1.89 | -1.45 | – |
| COc1ccc2oc(Cc3ccccc3)c(CCNC(=O)CI)c2c1 | 3.39 | 2.06 | 1.32 | – |
| COc1ccc2oc(Cc3c(Cl)cccc3Cl)c(CCNC(C)=O)c2c1 | 1.89 | 1.07 | 0.82 | – |
| CCc1ccc2oc(Cc3ccccc3)c(CCNC(C)=O)c2c1 | 2.08 | 1.19 | 0.893 | – |
| COc1cccc(Cc2oc3ccccc3c2CCNC(C)=O)c1 | 1.73 | 0.64 | 1.09 | – |
| COc1ccc2oc(CC3CCCCC3)c(CCNC(C)=O)c2c1 | 2.6 | 1.18 | 1.43 | – |
| COc1ccc2oc(Cc3cc(C(F)(F)F)cc(C(F)(F)F)c3)c(CCNC(C)=O)c2c1 | 0.469 | 0.322 | 0.147 | – |
| COc1ccc2oc(Cc3cccc(Cl)c3)c(CCNC(C)=O)c2c1 | 3.66 | 2.14 | 1.51 | – |
| C=CC(=O)NCCc1c(Cc2cccc(OC)c2)oc2ccc(OC)cc12 | 2.56 | 1.26 | 1.3 | – |
| CC(=O)NCCc1c(Cc2ccccc2)oc2ccccc12 | 1.98 | 0.81 | 1.17 | – |
| COc1ccc2oc(CCCc3ccccc3)c(CCNC(C)=O)c2c1 | 2.82 | 1.5 | 1.32 | – |
| COc1ccc2oc(Cc3cccc(F)c3)c(CCNC(C)=O)c2c1 | 3.64 | 3.12 | 0.513 | – |

Second part, the molecule after the results:

| pC1 [1] | pC1 [2] | Selectivity [3] | pC1 [4] | Structure (SMILES) |
| --- | --- | --- | --- | --- |
| 1.44 | 0.156 | 1.28 | – | COc1ccc2oc(Cc3ccccc3)c(CCNC(=O)c3ccco3)c2c1 |
| 4.7 | 5 | -0.301 | – | C=CCC(=O)NCCc1c(-c2ccccc2)oc2ccc(OC)cc12 |
| 3.7 | 2.48 | 1.22 | – | CCCC(=O)NCCc1c(Cc2ccccc2)oc2ccc(OC)cc12 |
| 2.93 | 1.1 | 1.83 | – | COc1ccc2oc(Cc3cccc(C(F)(F)F)c3)c(CCNC(C)=O)c2c1 |
| 3.16 | 1.27 | 1.89 | – | C=CC(=O)NCCc1c(Cc2ccccc2)oc2ccc(OC)cc12 |
| 2.49 | 2.09 | 0.407 | – | CCCCCCOc1ccc2oc(Cc3ccccc3)c(CCNC(C)=O)c2c1 |
| 4.22 | 2.46 | 1.77 | – | C=CCC(=O)NCCc1c(Cc2ccccc2)oc2ccc(OC)cc12 |
| 3.5 | – | 2.1 | – | COc1cccc(Cc2oc3ccc(OC)cc3c2CCNC(C)=O)c1 |
| 1.1 | 0.245 | 0.852 | – | CC(=O)NCCc1c(Cc2ccccc2)oc2ccc(O)cc12 |
| 2.01 | 1.37 | 0.642 | – | CCCCCOc1ccc2oc(Cc3ccccc3)c(CCNC(C)=O)c2c1 |
| 3.68 | 3 | 0.682 | – | C/C=C/C(=O)NCCc1c(-c2ccccc2)oc2ccc(OC)cc12 |
